Test [1] concerns the target T1, LRRK2^KW (Homo sapiens, UniProt Q5S007).
T1 construct: Kinase and WD40 domain construct (KW)
The arrangement: Differential scanning fluorometry, thermal stabilization of LRRK2 KW by compound. The note with it: binder. The source says: Next, we evaluated the potency and selectivity of these new compounds. We performed on-target screening by measuring the thermostability increase of LRRK2^KW in the presence of the new compounds using DSF (Supporting Information Table S2). We also determined the in vitro IC50 (median inhibitory concentration) values for each of the new compounds by purifying LRRK2^RCKW and measuring its kinase activity in the presence of our new inhibitors using the PhosphoSense® activity assay from AssayQuant (Supporting Information Table S2). Finally, we estimated the kinome selectivity of each compound by measuring the thermostability increase of approximately 100 representative kinases in the presence of the compounds via DSF (Supporting Information Table S2). […] Additionally, we screened a library of published type-II inhibitors to identify those that bind to LRRK2^KW (a Kinase and WD40 domain construct of LRRK2) with high affinity.

Test [2] deals with T2, leucine-rich repeat kinase 2 (LRRK2) (Homo sapiens, UniProt Q5S007).
T2 construct: LRRK2^RCKW (ROC, COR, Kinase, WD40)
T2 sequence (Q5S007 1327-2527 limits assumed): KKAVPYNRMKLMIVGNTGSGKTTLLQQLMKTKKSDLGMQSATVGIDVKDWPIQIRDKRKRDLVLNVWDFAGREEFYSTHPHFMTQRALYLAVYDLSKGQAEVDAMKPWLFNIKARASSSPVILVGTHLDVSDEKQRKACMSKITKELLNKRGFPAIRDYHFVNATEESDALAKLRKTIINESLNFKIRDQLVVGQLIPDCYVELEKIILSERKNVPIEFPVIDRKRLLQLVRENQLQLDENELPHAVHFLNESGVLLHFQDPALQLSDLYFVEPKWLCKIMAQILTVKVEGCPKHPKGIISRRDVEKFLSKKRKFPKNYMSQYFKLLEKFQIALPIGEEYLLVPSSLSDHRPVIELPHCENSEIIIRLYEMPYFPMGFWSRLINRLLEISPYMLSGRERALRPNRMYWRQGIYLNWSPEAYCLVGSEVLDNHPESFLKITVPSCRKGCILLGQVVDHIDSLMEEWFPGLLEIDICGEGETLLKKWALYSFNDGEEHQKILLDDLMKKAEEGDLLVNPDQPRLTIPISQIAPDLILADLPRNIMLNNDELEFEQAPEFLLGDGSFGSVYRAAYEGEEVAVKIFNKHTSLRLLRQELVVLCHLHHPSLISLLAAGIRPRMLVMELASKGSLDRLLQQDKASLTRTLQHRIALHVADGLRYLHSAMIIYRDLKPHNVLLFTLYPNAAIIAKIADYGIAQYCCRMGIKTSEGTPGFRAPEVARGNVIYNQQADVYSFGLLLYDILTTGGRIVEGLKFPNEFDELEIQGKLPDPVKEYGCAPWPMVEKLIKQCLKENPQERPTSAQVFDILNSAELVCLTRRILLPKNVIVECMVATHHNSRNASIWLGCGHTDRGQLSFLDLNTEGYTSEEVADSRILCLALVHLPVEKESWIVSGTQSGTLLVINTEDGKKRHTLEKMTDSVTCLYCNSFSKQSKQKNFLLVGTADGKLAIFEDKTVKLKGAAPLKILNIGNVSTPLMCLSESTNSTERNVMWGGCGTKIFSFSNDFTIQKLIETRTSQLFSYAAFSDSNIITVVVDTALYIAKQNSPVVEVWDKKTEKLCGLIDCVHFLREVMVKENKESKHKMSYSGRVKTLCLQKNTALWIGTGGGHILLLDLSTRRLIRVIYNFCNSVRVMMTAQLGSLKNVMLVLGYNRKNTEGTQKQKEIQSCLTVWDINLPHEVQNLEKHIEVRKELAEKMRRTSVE
Description: biochemical. On the set-up: PhosphoSense (AssayQuant) kinase activity assay with purified LRRK2 RCKW. The source says:
(§1) Next, we evaluated the potency and selectivity of these new compounds. We performed on-target screening by measuring the thermostability increase of LRRK2^KW in the presence of the new compounds using DSF (Supporting Information Table S2). We also determined the in vitro IC50 (median inhibitory concentration) values for each of the new compounds by purifying LRRK2^RCKW and measuring its kinase activity in the presence of our new inhibitors using the PhosphoSense® activity assay from AssayQuant (Supporting Information Table S2). Finally, we estimated the kinome selectivity of each compound by measuring the thermostability increase of approximately 100 representative kinases in the presence of the compounds via DSF (Supporting Information Table S2).

Test [3] deals with T2, leucine-rich repeat kinase 2 (LRRK2). Put plainly: PhosphoSense kinase activity assay; DSF ΔTm […] K on LRRK2^KW. Type of test: biochemical.
The target is the same in test [4]. Described as above. Type of test: biochemical. This is another data set of the same source.
In test [5] the target is T1, LRRK2^KW. On the set-up: DSF thermal shift of purified LRRK2 KW construct with compound. The note with it: binder. The source says: Additionally, we screened a library of published type-II inhibitors to identify those that bind to LRRK2^KW (a Kinase and WD40 domain construct of LRRK2) with high affinity. […] Next, we evaluated the potency and selectivity of these new compounds. We performed on-target screening by measuring the thermostability increase of LRRK2^KW in the presence of the new compounds using DSF (Supporting Information Table S2). We also determined the in vitro IC50 (median inhibitory concentration) values for each of the new compounds by purifying LRRK2^RCKW and measuring its kinase activity in the presence of our new inhibitors using the PhosphoSense® activity assay from AssayQuant (Supporting Information Table S2). Finally, we estimated the kinome selectivity of each compound by measuring the thermostability increase of approximately 100 representative kinases in the presence of the compounds via DSF (Supporting Information Table S2).

Test [6] addresses T2, leucine-rich repeat kinase 2 (LRRK2). Put plainly: biochemical. On the set-up: PhosphoSense kinase activity assay, purified LRRK2 RCKW.
From the text: as §1

T1 sequence (Q5S007 whole entry, the tested form may be a part): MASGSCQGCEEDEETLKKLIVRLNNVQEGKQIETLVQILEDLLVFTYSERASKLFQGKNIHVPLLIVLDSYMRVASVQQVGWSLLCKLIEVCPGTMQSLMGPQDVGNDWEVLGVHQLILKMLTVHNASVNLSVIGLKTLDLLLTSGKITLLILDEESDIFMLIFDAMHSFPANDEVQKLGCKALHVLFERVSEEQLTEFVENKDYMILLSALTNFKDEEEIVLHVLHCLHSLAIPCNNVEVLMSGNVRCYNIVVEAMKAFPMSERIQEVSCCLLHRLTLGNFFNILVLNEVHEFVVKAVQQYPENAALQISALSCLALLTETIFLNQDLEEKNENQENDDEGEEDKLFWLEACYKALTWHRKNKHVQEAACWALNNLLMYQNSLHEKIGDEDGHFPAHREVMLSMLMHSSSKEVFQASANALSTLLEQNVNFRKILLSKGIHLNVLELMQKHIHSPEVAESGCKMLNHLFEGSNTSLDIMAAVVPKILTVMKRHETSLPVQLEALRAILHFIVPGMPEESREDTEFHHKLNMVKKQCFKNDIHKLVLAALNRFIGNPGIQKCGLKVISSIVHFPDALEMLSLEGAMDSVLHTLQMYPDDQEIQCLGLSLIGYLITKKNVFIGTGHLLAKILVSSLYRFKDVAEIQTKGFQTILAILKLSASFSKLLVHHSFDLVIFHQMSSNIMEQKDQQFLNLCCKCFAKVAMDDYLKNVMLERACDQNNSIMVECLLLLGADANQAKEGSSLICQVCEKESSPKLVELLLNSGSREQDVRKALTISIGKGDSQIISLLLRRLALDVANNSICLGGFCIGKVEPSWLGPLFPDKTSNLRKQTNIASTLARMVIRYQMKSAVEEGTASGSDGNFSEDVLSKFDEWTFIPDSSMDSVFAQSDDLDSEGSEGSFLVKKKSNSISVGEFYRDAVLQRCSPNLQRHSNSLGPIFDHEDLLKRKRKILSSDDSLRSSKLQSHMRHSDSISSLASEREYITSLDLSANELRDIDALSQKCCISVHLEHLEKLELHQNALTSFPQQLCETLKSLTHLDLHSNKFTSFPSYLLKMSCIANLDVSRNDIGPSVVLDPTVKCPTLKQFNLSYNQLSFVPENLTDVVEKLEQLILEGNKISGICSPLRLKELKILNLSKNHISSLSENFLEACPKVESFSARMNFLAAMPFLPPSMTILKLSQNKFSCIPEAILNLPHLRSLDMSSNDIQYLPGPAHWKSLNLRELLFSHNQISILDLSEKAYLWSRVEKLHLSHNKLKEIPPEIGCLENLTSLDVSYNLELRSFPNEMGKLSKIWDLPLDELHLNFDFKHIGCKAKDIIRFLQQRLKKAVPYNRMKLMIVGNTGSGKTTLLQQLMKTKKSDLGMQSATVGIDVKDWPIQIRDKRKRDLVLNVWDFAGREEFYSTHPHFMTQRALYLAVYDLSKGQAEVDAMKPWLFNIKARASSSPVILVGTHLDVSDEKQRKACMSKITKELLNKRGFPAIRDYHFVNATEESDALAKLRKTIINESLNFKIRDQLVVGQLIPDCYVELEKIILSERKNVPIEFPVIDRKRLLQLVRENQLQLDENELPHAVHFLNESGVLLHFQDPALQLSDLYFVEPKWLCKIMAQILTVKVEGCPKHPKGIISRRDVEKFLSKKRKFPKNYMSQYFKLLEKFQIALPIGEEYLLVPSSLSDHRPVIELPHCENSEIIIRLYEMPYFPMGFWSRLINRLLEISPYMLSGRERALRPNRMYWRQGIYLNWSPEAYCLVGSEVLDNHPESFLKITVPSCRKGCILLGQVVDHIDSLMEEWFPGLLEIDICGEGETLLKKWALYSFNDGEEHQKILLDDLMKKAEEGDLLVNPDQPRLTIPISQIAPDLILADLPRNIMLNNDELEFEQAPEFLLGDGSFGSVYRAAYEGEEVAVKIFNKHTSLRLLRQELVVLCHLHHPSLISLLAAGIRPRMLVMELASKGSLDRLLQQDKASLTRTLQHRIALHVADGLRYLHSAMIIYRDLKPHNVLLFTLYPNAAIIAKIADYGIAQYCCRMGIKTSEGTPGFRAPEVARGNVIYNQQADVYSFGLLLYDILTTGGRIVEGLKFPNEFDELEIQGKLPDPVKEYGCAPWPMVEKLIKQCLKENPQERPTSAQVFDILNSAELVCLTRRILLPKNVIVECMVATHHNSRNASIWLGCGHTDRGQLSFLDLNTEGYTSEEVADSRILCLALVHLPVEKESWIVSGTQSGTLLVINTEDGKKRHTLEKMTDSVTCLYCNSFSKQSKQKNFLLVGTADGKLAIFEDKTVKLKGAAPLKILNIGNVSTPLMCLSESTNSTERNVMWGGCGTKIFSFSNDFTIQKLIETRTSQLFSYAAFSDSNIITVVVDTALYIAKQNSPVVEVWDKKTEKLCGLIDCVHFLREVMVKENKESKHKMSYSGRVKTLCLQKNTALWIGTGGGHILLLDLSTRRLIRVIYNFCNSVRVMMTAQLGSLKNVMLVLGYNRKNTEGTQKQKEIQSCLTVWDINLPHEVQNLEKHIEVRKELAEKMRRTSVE

In the case of `CN1CCc2cc(N(C(=O)C3(C(N)=O)CC3)c3cccc(-c4c[nH]c5ncnc(N6CCOCC6)c45)c3)ccc2C1` [compound 10, N-(2-methyl-1,2,3,4-tetrahydroisoquinolin-6-yl)-N-(3-(4-morpholino-7H-pyrrolo[2,3-d]pyrimidin-5-yl)phenyl)cyclopropane-1,1-dicarboxamide], at LRRK2^KW [1], the “ΔTm [K]” value is given as 4.3 K. The IC50 in test [2] was 3.18 ± 0.134 µM.

With `NC(=O)C1(C(=O)N(c2cccc(-c3c[nH]c4ncnc(N5CCOCC5)c34)c2)c2cccc3c2CCC3)CC1` [compound 11, N-(2,3-dihydro-1H-inden-4-yl)-N-(3-(4-morpholino-7H-pyrrolo[2,3-d]pyrimidin-5-yl)phenyl)cyclopropane-1,1-dicarboxamide], the “ΔTm [K]” value on LRRK2^KW [1] came out at 9.2 K. In addition, the IC50 in test [2] was found to be 0.989 ± 0.032 µM.

Consider `Cc1cc(N(C(=O)C2(C(N)=O)CC2)c2cccc(-c3c[nH]c4ncnc(N5CCOCC5)c34)c2)ccc1F` [compound 20, 20], for which the midpoint of inhibition in test [3], the IC50, lay at 0.11 ± 0.011 µM.

In turn, `NC(=O)C1(C(=O)N(c2cccc(-c3c[nH]c4ncnc(N5CCOCC5)c34)c2)c2ccc(F)c(Br)c2F)CC1` [compound 26, RN222] gave a concentration for half-maximal inhibition (IC50) in test [4] of 0.134 ± 0.005 µM.

For `COc1cc(S(C)(=O)=O)ccc1Nc1nc(N(C)C)c2c(-c3cccc(NC(=O)Nc4cc(C(C)(C)C)nn4-c4ccc5ncccc5c4)c3)c[nH]c2n1` [compound 37, 1-(3-(tert-butyl)-1-(quinolin-6-yl)-1H-pyrazol-5-yl)-3-(3-(4-(dimethylamino)-2-((2-methoxy-4-(methylsulfonyl)phenyl)amino)-7H-pyrrolo[2,3-d]pyrimidin-5-yl)phenyl)urea], on LRRK2^KW [1], the “ΔTm [K]” value is 1.5 K.

For the compound `Cc1ccc(C(=O)Nc2ccc(CN3CCN(C)CC3)c(C(F)(F)F)c2)cc1C#Cc1ccc2cn[nH]c2c1` [compound 52, 3-((1H-indazol-6-yl)ethynyl)-4-methyl-N-(4-((4-methylpiperazin-1-yl)methyl)-3-(trifluoromethyl)phenyl)benzamide], the “∆Tm [K]” value on LRRK2^KW [5] is reported as 10.0 K. Also, the IC50 in test [6] (read-out: IC50) is 897 ± 120 nM.

On to `CC(C)(C)c1cc(NC(=O)Nc2ccc3cn[nH]c3c2)n(-c2ccc3ncccc3c2)n1` [compound 53, 1-(3-(tert-butyl)-1-(quinolin-6-yl)-1H-pyrazol-5-yl)-3-(1H-indazol-6-yl)urea], for which the “∆Tm [K]” value on LRRK2^KW [5] was 2.0 K. For the same compound, in test [6] (read-out: IC50 [nM]), the IC50 was > 15000 nM.

In the case of `Cc1ccc(-n2nc(C(C)(C)C)cc2NC(=O)Nc2ccc3cn[nH]c3c2)cc1` [compound 54, 1-(3-(tert-butyl)-1-(p-tolyl)-1H-pyrazol-5-yl)-3-(1H-indazol-6-yl)urea], the “∆Tm [K]” value at LRRK2^KW [5] is 2.0 K. In test [6] (read-out: IC50 [nM]), the IC50 was > 15000 nM.

As usually defined, the IC50 is the concentration that gives 50% inhibition.

Source of the values: article doi:10.1101/2024.09.17.613365, “Type-II kinase inhibitors that target Parkinson’s Disease-associated LRRK2” (bioRxiv, 2025).
